Test results: patent publication US20120283334A1, “Treatment of Viral Infections” (Biocopea, Ltd., priority 2009, published 2012)
“Also recorded” adds a separate entry of the source. Where two headings read alike, the source gives them in different places.

Columns and labels:
[1] = tested on: Influenza A/PR/8/34 (H1N1 virus); assay: In vivo mouse influenza challenge, dobutamine and ritodrine intra-peritoneal; settings: H1N1-infected mice; for Sum Total Morbidity: FIG. 3
Procedure: 5) In Vivo Mouse Studies Using Dobutamine
Protocol: Fifty (50) C57BL/6 female mice (6-7 weeks old), were divided into […] experimental groups containing ten (10) animals each. On day 1, animals received an intranasal lethal dose (50 μl total, 25 μl nostril) of Influenza A/PR/8/34 under halothane induced anesthesia. On Day 3, animals received one intra-peritoneal injection (100-150 μl) of the test compound. On Day 4 or 5, all animals still alive received a second intra-peritoneal injection (100-150 μl) of the test compound.
All animals were assessed daily for morbidity, weight loss and survival from Day 1 until at least Day 6. Morbidity variables (i.e. Body Condition, Posture, Activity, Piloerection, Respiration, Vocalisation, Ataxia and Oculo/Nasal Discharges) were recorded according to the following scale of severity: Normal (0), Mild (1), Laboured (2) and Severe/Cull-point (3).
Using standard techniques as described above, mice were infected with a H1N1 virus which was allowed to become established in each of the subjects. Each test mouse was then treated with dobutamine (BC1021) either with a single dose on day 3 after infection with the virus, or as two doses, one on day 3 and one on day 4 after infection. In the control mice, no dobutamine was administered. The weight loss of both treated and untreated mice was then determined.
The inventors also investigated the effects of dobutamine (single and double doses) as well as ritodrine (single and double doses) on the Sum Total Morbidity of the tested mice. Referring to FIG. 3, there are shown the data of these experiments. The value of Sum Total Morbidity corresponds to a confidence value of the general “wellness” of the mice, and takes into account the quality of the fur and grooming of the mice, and whether or not the mice are able to feed and walk. Measurement of Morbidity values will be known to the skilled technician.

TNF-α = TNF-α levels in PBMC under LPS stimulation (ELISA); type: cell-based, human; settings: for Percentage TNF-α levels compared to 100% untreated cells under LPS stimulation: PBMC; for concentration of TNF-α in LPS stimulated cells: text summary of Table 2, concentration not stated
Procedure: 1) Isolation, Culture and Treatment of Peripheral Blood Mononuclear Cells (PBMC) Blood was collected in 6 ml vacutainers (green cap). Blood was processed within 2 h of collection. Materials used: Non-coagulated blood; FCS; RPMI-1640 media supplemented with L-Gln and P/S; PBS; sterile tips and pipettes; Sterile 15 ml Falcon; Sterile V-bottom 96-well plates with lids; Neubauer chamber; Trypan Blue solution; 70% IPA solution; Accuspin-Histopaque tubes (Sigma, A7054) Procedure: • 1. Dilute samples 1:1 in sterile PBS; • 2. Add 30 ml of diluted blood into an Accuspin-Histopaque tube (Sigma, A7054); • 3. Centrifuge at 800 rcf 15min at room temperature (RT); • 4. After centrifugation, the red blood cells will remain at the bottom below the frit. The monocytes (PBMC) will be present on a layer above the frit, with the plasma on top; • 5. Collect the PBMC layer with a pipette into a fresh 15 ml Falcon tube and top up to 15 ml of PBS; • 6. Centrifuge at 250 rcf 10 min at RT; • 7. Discard the supernatant, flick the pellet and add another 10 ml of PBS; • 8. Centrifuge at 250 rcf 10 min at RT; • 9. Repeat steps 7 and 8; • 10. […] Count cells and make a 4×10^6 cell/ml suspension in complete medium. Add 100 μl of cell suspension per well in a V-bottom 96-well plate. Then add 50 μl of stimulant or vehicle in complete media, and 50 μl of drug or vehicle in complete media. Incubate the cells for 24 h at 37° C. 5% CO2; • 12. After incubation, take 60 μl of cell supernatant to measure IFNγ and TNFα by ELISA (OptEIA human IFNγ, cat No. 555142 and human TNF, Cat No. 555212) following manufacturer's instructions (BD Biosciences); The two mitogens that the inventors used to stimulate lymphocytes, and therefore assess immune function, were lipopolysaccharide (LPS) and Concanavalin A (Con A). LPS acts on B cells but not T cells, whereas Con A acts on T cells but not B cells. The effects of two embodiments of the compound represented by formula I, i.e. dobutamine (referred to in the tables as BC1021) and ritodrine (BC1023), on the levels of IFN-γ and TNF-α were investigated in LPS and Con A stimulated assays. Peripheral Blood Mononuclear Cells (PMBC) were independently administered with each mitogen, LPS or Con A, and then treated with either dobutamine or ritodrine. Control experiments were conducted in which no LPS or Con A was added, such that any effect on the levels of IFN-γ and TNF-α could be directly attributed to the presence of the test compound, dobutamine or ritodrine. The values in the Tables are expressed as the percentage value of the LPS only control. […] Standard deviation values (s.d.) are given underneath each value of expressed IFN-γ levels.

Con A-stimulated cells = assay: Cell cytotoxicity compared to digitonin under Con A stimulation
Description: Digitonin is a glycoside obtained from Digitalis purpurea, which acts as a detergent, and effectively water-solubilizes lipids in the plasma membrane. Therefore, digitonin can be used to permeabilise cell membranes. The inventors therefore investigated digitonin's cell membrane-permeabilising effects on Con A-stimulated cells to determine the cytotoxic effects of ritodrine or dobutamine.

[2] = two doses on days 3 and 4 (Groups C and E)

SMILES | Sum Total Morbidity ([1]; all doses, single or double) | Sum Total Morbidity [1, 2] | Percentage TNF-α levels compared to 100% untreated cells under LPS stimulation (TNF-α; + LPS, compound 1 μM, 24 h) | Percentage TNF-α levels compared to 100% untreated cells under LPS stimulation (TNF-α; + LPS, compound 10 μM, 24 h) | Percentage TNF-α levels compared to 100% untreated cells under LPS stimulation (TNF-α; + LPS, compound 100 μM, 24 h) | Percentage TNF-α levels compared to 100% untreated cells under LPS stimulation (TNF-α; compound only (no LPS), 1 μM) | Percentage TNF-α levels compared to 100% untreated cells under LPS stimulation (TNF-α; compound only (no LPS), 10 μM) | Percentage TNF-α levels compared to 100% untreated cells under LPS stimulation (TNF-α; compound only (no LPS), 100 μM) | concentration of TNF-α in LPS stimulated cells (TNF-α) | also measured
CC(NCCc1ccc(O)cc1)C(O)c1ccc(O)cc1 (stereo not drawn) [BC1023, ritodrine] | improvement of the morbidity value | the most improvements | 62.12% | 85.01% | 85.74% | −29.75% | 0.74% | −56.57% | decreased | cytotoxicity rates in treated samples (Con A-stimulated cells): lower; Percentage cytotoxicity compared to 100% for digitonin under Con A stimulation (Con A-stimulated cells; human, 1 μM): 44.54%; Percentage cytotoxicity compared to 100% for digitonin under Con A stimulation (Con A-stimulated cells; human, 10 μM): 43.63%; Percentage cytotoxicity compared to 100% for digitonin under Con A stimulation (Con A-stimulated cells; human, 100 μM): 43.81%
CC(CCc1ccc(O)cc1)NCCc1ccc(O)c(O)c1 (stereo not drawn) [BC1021, dobutamine] | improvement of the morbidity value | the most improvements; also recorded: the most effective | 91.20% | 84.79% | 81.41% | −80.18% | −145.07% | −151.15% | decreased | effect on weight loss ([1]; single dose on day 3, FIG. 1): little effect; percentage survival of mice ([1]; single dose on day 3, FIG. 2): little effect; lower reduction in weight loss than the control mice ([1]; two doses on days 3 and 4 after infection, FIG. 1): ≥ 10%; percentage survival of mice ([1]; two doses, day 3 and day 4, FIG. 2): higher survival rate than the control; Percentage cytotoxicity compared to 100% for digitonin under Con A stimulation (Con A-stimulated cells; compound only (no Con A), 1 μM): 47.71%; Percentage cytotoxicity compared to 100% for digitonin under Con A stimulation (Con A-stimulated cells; compound only (no Con A), 10 μM): 42.94%; Percentage cytotoxicity compared to 100% for digitonin under Con A stimulation (Con A-stimulated cells; compound only (no Con A), 100 μM): 32.33%; cytotoxicity rates in treated samples (Con A-stimulated cells; text summary of Table 6, vast majority of cases): lower
